The values that follow come from PMC3227622, “GnRH receptor activation competes at a low level with growth signaling in stably transfected human breast cell lines” (BMC Cancer, 2011).

Entries after “also recorded” stand apart in the source; their conditions may differ. Like-named read-outs stand apart in the source and are kept apart here. Bounds are passed on as bounds.

On the set-up of assay [1]: method as in PMID 17512856, PMID 19213681. Particulars: by inhibiting secretion of luteinizing hormone and follicle stimulating hormone; ref [1],[2]; cited from earlier work.
The test system of another assay is SVCT-2 cells. Kind of assay: SRB cell growth assay, SVCT-2 (rat GnRH receptor transfected). The class given is cell-based, human. Particulars: for IC50: Homo sapiens; for IC50 / effect on cell growth of co-treatment / effect on cell growth: SRB; for effect on cell growth: single treatment. As to the method:
(§1) Cells were cultured in Dulbecco's modified Eagle's medium (DMEM) with 10% fetal bovine serum. Medium for SVCT cells was supplemented with recombinant human insulin and hydrocortisone as specified by the suppliers (ECACC, UK). HEK293[SCL60] and WPE-1-NB26-8 cells were cultured as described elsewhere. Cells were transfected with a plasmid construct, pcDNA3.1(+) (neo) (Invitrogen, UK) containing a rat GnRH receptor cDNA insert, using Fugene 6 (Roche, UK) in Optimem-I (GIBCO, Invitrogen, UK). Cell clones growing in 6 cm dishes were picked using trypsinization in cloning cylinders (Sigma, UK) and sequentially expanded in multiwell plates and flasks prior to characterization. Sub-clones were generated by re-transfecting an individual clone with a 2.334 kb SV40 promoter-hygromycin phosphotransferase cDNA fragment excised from pcDNA3.1(-) (hygro) plasmid (Invitrogen, UK) using PvuII (Promega, UK) and purified following agarose gel electrophoresis.
(§2) Cells were seeded into 12 well plates and growth was monitored using the sulforhodamine B (SRB) staining assay described previously. Two milliliters culture medium per well was sufficient to sustain cell growth over all time courses investigated. Cells were treated with a dose range of Triptorelin or vehicle (20% propylene glycol, Sigma, UK). Similar experiments employing IGF-IR, EGFR/ErbB2 and PI3K inhibitors were performed. Assay measurements were performed in triplicate and were repeated on separate occasions. At each time point, cells were fixed by adding 1 ml 25% trichloroacetic acid to each well, stored at 4°C for 1 h before gently washing and drying plates. Fixed cells were stained with 0.4% SRB in 1% acetic acid, washed, dried and dissolved in 1 ml 0.1 M Tris pH 10. Absorbance measurements at 540 nm correlated with the number of cells per well.
(§3) Immuno-fluorescence data were analyzed by one-way ANOVA using Minitab version 16 (Minitab Inc., USA). Prism software (GraphPad, USA) was used to prepare graphs and to calculate EC50 and IC50 values. Western blots were quantified using ImageQuant software (GE Healthcare). Quantitative data were analyzed using on-line tools for T-test, http://easycalculation.com/statistics/standard-deviation.php and http://www.quantitativeskills.com/sisa/.

A further assay deals with MCF-7hygro14 cells. Put plainly: SRB cell growth assay, MCF-7hygro14 (MCF-7-30-7hygro14). It is filed as cell-based, human. Particulars: for IC50: 96 h, without co-treatment, read-out: IC50 growth inhibition; for IC50 / effect on cell growth of co-treatment / effect on cell growth: 4 days. The procedure: as §1, §2, §3
The next assay has as its system HEK293[SCL60] cells. Kind of assay: SRB cell growth assay, HEK293[SCL60]. To be noted: SRB (Triptorelin: after 4 days). It is filed as cell-based, human. An excerpt:
Most reagents were purchased from Sigma UK, including D-Trp^6GnRH-I (D-Trp^6-LHRH, Triptorelin). Antibodies for ERK-1/2 and phosphorylated-ERK1/2 were purchased from Cell Signaling Technology, UK and for β-actin, from Sigma, UK. Secondary antibodies conjugated to alkaline phosphatase were from Sigma, UK. Insulin like growth factor receptor-I (IGF-IR) inhibitor II, EGFR/ErbB2 inhibitor and phosphatidylinositol-4,5-bisphosphate 3-kinase γ (PI3Kγ) inhibitor were purchased from Calbiochem, UK. SVCT cells were purchased from ECACC, UK. MCF-7, MDA-MB-231, ZR-75-1, and T47D cells were from American Type Culture Collection (LGC, UK). The GnRH receptor stably transfected HEK293[SCL60] and prostate WPE-1-NB26-8 cell lines described elsewhere together with HEK293 cells were used as controls for comparison.
Cells were cultured in Dulbecco's modified Eagle's medium (DMEM) with 10% fetal bovine serum. Medium for SVCT cells was supplemented with recombinant human insulin and hydrocortisone as specified by the suppliers (ECACC, UK). HEK293[SCL60] and WPE-1-NB26-8 cells were cultured as described elsewhere. […]
Cells were seeded into 12 well plates and growth was monitored using the sulforhodamine B (SRB) staining assay described previously. […] Absorbance measurements at 540 nm correlated with the number of cells per well.

The subject of another assay is MDA-MB-231-34 cells. Kind of assay: SRB cell growth assay, MDA-MB-231-34. It is filed as cell-based, human. To be noted: SRB (Triptorelin 100 nM). The procedure:
as §1
Cells were seeded into 12 well plates and growth was monitored using the sulforhodamine B (SRB) staining assay described previously. Two milliliters culture medium per well was sufficient to sustain cell growth over all time courses investigated. Cells were treated with a dose range of Triptorelin or vehicle (20% propylene glycol, Sigma, UK). […] Absorbance measurements at 540 nm correlated with the number of cells per well.

The test system of assay [2] is p-ERK1/2 in MCF-7hygro14 cells. Put plainly: p-ERK1/2 western blot, MCF-7hygro14. To be noted: for ERK1/2 re-phosphorylation after inhibitor wash-off: 1 h exposure to IGF-IR inhibitor II, then medium containing serum. It is filed as cell-based, human. The procedure: (§4) Cells were grown in six-well plastic culture plates until 50-70% confluent. Some samples were washed twice with phosphate buffered saline prior to incubation in serum-free medium overnight. Cells were treated with 100 nM Triptorelin or vehicle for specific time periods prior to lysis and harvesting. Samples were processed for western blotting as described previously using NP40 lysis buffer at 4°C [8, 9]. For quantitative data, time points were measured in triplicate. Blots were imaged by a Typhoon phosphor-imager (GE Healthcare, UK) using enhanced chemi-fluorescence detection and analyzed using ImageQuant software (GE Healthcare, UK).
as §3
(In general: A western blot detects proteins with antibodies after separation by electrophoresis.)

The subject of assay [3] is p-ERK1/2 in MDA-MB-231-34 cells. Kind of assay: p-ERK1/2 western blot, MDA-MB-231-34. The class given is cell-based, human. Particulars: IGF-IR inhibitor II. The procedure: as §4, §3
For assay [4], the system named is p-ERK1/2 in HEK293[SCL60] cells. Put plainly: p-ERK1/2 western blot, HEK293[SCL60]. The class given is cell-based, human. Particulars: IGF-IR inhibitor washed off, without Triptorelin. The procedure: as §4, §3
Setting [5] is: 96 h, without co-treatment, 4 days, read-out: IC50 growth inhibition.
Setting [6] is: co-treatment with 100 nM Triptorelin, 4 days.
[7] abbreviates: co-treatment with 100 nM Triptorelin, SRB.
[8] abbreviates: single treatment, SRB (Triptorelin 100 nM).
Where [9] appears, read: 15-20 μM IGF-IR inhibitor II, in the presence of serum.
Setting [10] is: listed as IGF-I receptor inhibitor.

Take goserelin: the “plasma levels of estrogen” value in assay [1] is listed as “lowers plasma levels of estrogen”.

Regarding `COc1ccc(Cl)cc1NC(=O)Nc1cc(C)nc2ccccc12` [IGF-IR inhibitor II, N-(2-Methoxy-5-chlorophenyl)-N'-(2-methylquinolin-4-yl)-urea], the IC50 (commonly the point on the concentration scale where inhibition reaches its midpoint) was about 11 µM with SVCT-2 cells (setting [5]); about 9 µM with SVCT-2 cells (co-treatment with 100 nM Triptorelin, read-out: apparent IC50 growth inhibition); about 17 µM in the assay on MCF-7hygro14 cells (Homo sapiens, SRB). Moreover, the “effect on cell growth of co-treatment” value in the assay on SVCT-2 cells (setting [6]) is reported as “small additive effect; also recorded: increased growth inhibition marginally”; in the assay on SVCT-2 cells (co-treatment with 100 nM Triptorelin, 4 days, listed as IGF-IR inhibitor) it was “small additive growth-inhibitory effect”; with MCF-7hygro14 cells (setting [7]) it was “no significant effect”. For the same molecule, the “effect on cell growth” value was “complete growth inhibition accompanied by cell death; also recorded: effectively inhibited” in the assay with SVCT-2 cells (4 days); “Growth and survival were inhibited; also recorded: growth-inhibition and cell death” in the assay with MCF-7hygro14 cells (setting [8]); “inhibited” in the assay with HEK293[SCL60] cells; “inhibiting their growth also” with MDA-MB-231-34 cells. The inhibition (commonly the change of the read-out against control, counted positive when it falls) at 15 µM in the assay on MCF-7hygro14 cells (Homo sapiens, 15 μM, exposure up to 2 hours, PBS washout, growth over 4 days, read-out: growth inhibition after transient exposure and washout) was under 10%. The “growth inhibition after transient exposure and washout” value with MCF-7hygro14 cells (exposure 6 hours or more, PBS washout, growth over 4 days) is recorded as “more than 20%”. The “effect on levels of p-ERK1/2” value is “permanent decrease in levels of p-ERK1/2” in assay [2] (setting [9]); “rapid and sustained de-phosphorylation of ERK1/2; also recorded: rapid decrease in the levels of p-ERK1/2” in assay [2] (15-20 μM IGF-IR inhibitor II, in the presence of serum, listed as IGF-IR inhibitor); “did not elicit this effect” in assay [3]; “not in MDA-MB-231-34 cells; also recorded: did not affect levels of p-ERK1/2” in assay [3] (listed as IGF-IR inhibitor). Further, the “time to decrease in p-ERK1/2” value in assay [2] (setting [9]) is at most 30 min. Also, the “ERK1/2 re-phosphorylation after inhibitor wash-off” value is reported as “rapid hyper-phosphorylation of ERK1/2 followed by a slow decline” in assay [2]; “Rapid re-phosphorylation of ERK1/2” in assay [2] (setting [10]); “rapid hyper-phosphorylation of ERK1/2, followed by a slow decline to basal levels” in assay [2] (listed as IGF-IR inhibitor); “hyper-phosphorylation of ERK1/2 did not occur” in assay [4]; “Re-phosphorylation of ERK1/2 was less marked” in assay [4] (setting [10]); “rapid hyper-phosphorylation of ERK1/2 did not occur” in assay [4] (listed as IGFR-IR inhibitor II).

In the case of `O=C1NC(=O)C(=Cc2ccc3nccnc3c2)S1` [PI3Kγ inhibitor, 5-Quinoxalin-6-ylmethylene-thiazolidine-2,4-dione], the “effect on cell growth” value in the assay with MCF-7hygro14 cells (PI3K inhibitor 5 nM to 7 μM, maximum dose 7 μM) is “not affected”; in the assay with MCF-7hygro14 cells (PI3K inhibitor 5 nM to 7 μM, maximum dose 7 μM, listed as PI3K inhibitor), “did not affect growth; also recorded: lack of effect”. For the same molecule, the “effect on cell growth of co-treatment” value in the assay on MCF-7hygro14 cells (PI3K inhibitor up to 7 μM with 100 nM Triptorelin) is on record as “no significant growth-inhibition”; with MCF-7hygro14 cells (PI3K inhibitor up to 7 μM with 100 nM Triptorelin, listed as PI3K inhibitor) it was “did not significantly alter this result”.

As for `COc1cc2ncnc(Nc3ccc(OCc4ccccc4)cc3)c2cc1OC` [EGFR/ErbB2 inhibitor, 4-(4-Benzyloxyanilino)-6,7-dimethoxyquinazoline], the IC50 with SVCT-2 cells (setting [5]) is about 2 µM; in the assay on MCF-7hygro14 cells (Homo sapiens, SRB), about 5 µM. In addition, the “growth inhibition relative to vehicle treated cells” value in the assay with SVCT-2 cells (after 4 days, SRB staining, 540 nm, DMEM with 10% fetal bovine serum, triplicate) is listed as 50%. Besides, the “effect on cell growth of co-treatment” value with SVCT-2 cells (setting [6]) was “did not significantly affect growth; also recorded: had no effect”; with MCF-7hygro14 cells (setting [7]), “no significant growth-inhibition; also recorded: did not significantly affect growth”. In addition, the “effect on cell growth” value in the assay with SVCT-2 cells (4 days) is “reduced SVCT-2 cell growth”; with MCF-7hygro14 cells (setting [8]), “inhibited”. This molecule also gave a growth inhibition with MCF-7hygro14 cells (after 4 days, SRB) of 50%.
